Assay results from PubChem BioAssay AID1645867 (Buhrlage Lab, Dana-Farber Cancer Institute and Novartis …, 2021).
Active and inactive are the calls of the source. The rule behind the calls is not given here.

Molecular target: Ubiquitin carboxyl-terminal hydrolase isozyme L1 (Homo sapiens) (UniProt P09936)
Assay: UCH-L1 deubiquitylase inhibitors, biochemical concentration-response, hit retest (AID 1645867)
Conditions: recombinant UCHL1 deubiquitinase activity assay

Sequence of Ubiquitin carboxyl-terminal hydrolase isozyme L1 (Homo sapiens) (P09936 whole entry, looked up): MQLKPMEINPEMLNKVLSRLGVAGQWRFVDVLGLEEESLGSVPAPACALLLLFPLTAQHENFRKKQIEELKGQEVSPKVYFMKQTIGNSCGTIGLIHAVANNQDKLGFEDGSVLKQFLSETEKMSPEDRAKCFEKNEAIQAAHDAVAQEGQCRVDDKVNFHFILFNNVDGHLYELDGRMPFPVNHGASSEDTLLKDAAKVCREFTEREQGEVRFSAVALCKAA

Structure (SMILES) | IC50
CN(Cc1ccccc1)S(=O)(=O)c1ccc2[nH]c(=O)[nH]c2c1 | > 25 µM (inactive)
CC(C)C(=O)Nc1nc2cc(NS(=O)(=O)c3ccccc3)ccc2s1 | > 25 µM (inactive)
Cc1ccc(-n2c(=O)[nH]c3c(C(N)=O)nc(-c4ccc(OCc5ccccc5)cc4)nc32)cc1 | > 25 µM (inactive)
Cc1ccc(NC(=O)Nc2ccc(C)n(CC(=O)Nc3ccc(C)cc3C)c2=O)cc1 | > 25 µM (inactive)
Cc1ccccc1CCNCc1c(C(=O)O)n(Cc2ccc(Cl)cc2)c2ccccc12 | > 25 µM (inactive)
Cc1ccc(C2CN3C(=O)CN(C4CC4)C(=O)[C@]3(C)c3[nH]c4ccccc4c32)cc1 (stereo partly drawn) | > 25 µM (inactive)
O=C(c1ccc2cc[nH]c2c1)N1CCC(Nc2cccnc2)C1 (stereo not drawn) | > 25 µM (inactive)
CCC(C)N1CNc2c(c(=O)[nH]c(=O)n2Cc2ccco2)C1 (stereo not drawn) | > 25 µM (inactive)
CC1=C(O)C(=O)C=C2C1=CC=C1[C@@]2(C)CC[C@@]2(C)[C@@H]3C[C@](C)(C(=O)O)CC[C@]3(C)CC[C@]12C | > 25 µM (inactive)
c1ccc(-c2ccc(NCc3ccc4c(c3)OCO4)nn2)cc1 | > 25 µM (inactive)
O=C(Nc1ccc2c(c1)OCO2)c1cncc(NS(=O)(=O)c2ccccc2)c1 | > 25 µM (inactive)
COC1=C(C2=C(OC)C(=O)c3cc4c(c(O)c3C2=O)C(=O)OC(C)C4)C(=O)c2c(cc3c(c2O)C(=O)OC(C)C3)C1=O (stereo not drawn) | 11.9 µM
Cc1cccc(CCN2C(=O)CCc3c(C)nc(C4CCCNC4)nc32)c1 (stereo not drawn) | > 25 µM (inactive)
CCOc1ccc2c(c1)c(=O)c(C(=O)c1ccccc1)cn2CC(=O)Nc1ccccc1 | > 25 µM (inactive)
O=c1[nH]oc(O)c1-c1ncc(C(F)(F)F)cc1Cl | > 25 µM (inactive)
O=C(CSc1ccc(-c2cccc([N+](=O)[O-])c2)nn1)Nc1cccc(F)c1 | > 25 µM (inactive)
CC[C@@H]1[C@@H](C)O[C@@](O)([C@@H](C)[C@H](O)[C@H](C)[C@H]2OC(=O)/C=C/C=C/[C@H](C)[C@@H]([C@@H](C)[C@@H](O)[C@H](C)[C@@]3(O)C[C@@H](O[C@H]4C[C@H](O)[C@H](O)[C@H](C)O4)[C@H](CC)[C@@H](C)O3)OC(=O)/C=C/C=C/[C@@H]2C)C[C@H]1O[C@H]1C[C@H](O)[C@H](O)[C@H](C)O1 | > 25 µM (inactive)
CCc1cccc(CC)c1NC(=O)COC(=O)c1cc2cccc(OC)c2oc1=O | > 25 µM (inactive)
Fc1cc(F)c2[nH]cc(-c3nnnn3-c3ccc4ccccc4c3)c2c1 | > 25 µM (inactive)
O=C(C1CCCC1)N1CCC(c2nc3c(nnn3Cc3ccccc3Cl)c(=O)[nH]2)CC1 | > 25 µM (inactive)
Cc1nnc(-c2ccc3ccn(CC(=O)N4CCN(c5ccccc5)CC4)c3c2)o1 | > 25 µM (inactive)
Cc1cc(C)c(NC(=O)Cn2c(SCc3cccc(F)c3)nc3cccnc32)c(C)c1 | > 25 µM (inactive)

Structure (SMILES) | IC50
COc1ccc(CNC(=O)CCCc2nnc3c(=O)n(-c4cc(C)cc(C)c4)ccn23)cc1 | > 25 µM (inactive)
N#CCCN(C(=O)c1cc2c(s1)-c1ccccc1OC2)c1ccccc1 | > 25 µM (inactive)
COc1ccc(Cl)cc1NC(=O)CSc1ncnc2nc[nH]c12 | > 25 µM (inactive)
CCCC1(c2ccccc2)NC(=O)N(Cc2ccc(Cl)cc2)C1=O (stereo not drawn) | > 25 µM (inactive)
Cc1ccc(-n2cc(-c3noc(C(=O)Nc4ccc(F)cc4C)n3)nn2)cc1 | > 25 µM (inactive)
COc1ccc(C(=O)COC(=O)c2ccccc2NS(=O)(=O)c2ccc(O)c([N+](=O)[O-])c2)cc1 | > 25 µM (inactive)
Cc1ccc2nc(CCc3ccc(NS(=O)(=O)c4ccc(F)c(Cl)c4)cc3)[nH]c2c1 | > 25 µM (inactive)
CC(Oc1ccc(F)cc1)c1nnc(C2(c3ccc(F)cc3)CCOCC2)o1 (stereo not drawn) | > 25 µM (inactive)
O=C1CC(c2ccco2)Cc2[nH]c(=O)c(-c3nc(-c4ccc(Cl)cc4)cs3)cc21 (stereo not drawn) | > 25 µM (inactive)
O=C(CCSc1nnnn1-c1ccccc1)Nc1cc(C(F)(F)F)ccc1Cl | > 25 µM (inactive)
O=C(O)c1ccc(Cl)c(NC(=O)C2COc3ccccc3O2)c1 (stereo not drawn) | > 25 µM (inactive)
O=C(c1cccc2ncccc12)N1CCN(c2ccnc3cc(Cl)ccc23)CC1 | > 25 µM (inactive)
Cc1ccc2cc(-c3noc(CCC(=O)NC4CCCC4)n3)c(=O)[nH]c2c1 | > 25 µM (inactive)
C(=C\c1nc(-c2cccc(-c3ccn[nH]3)c2)no1)/c1ccco1 | > 25 µM (inactive)
Cc1nn(-c2ccccc2)c(C)c1S(=O)(=O)N1CCN(c2ccccn2)CC1 | > 25 µM (inactive)
COc1cccc(CNc2ccc(-c3nc(-c4ccccc4)no3)nn2)c1 | > 25 µM (inactive)
C=C/C(C)=C/[C@@]1(C)SC(=O)C(C)=C1O | 5.87 µM
CNc1nc2c(c(=O)n1C)CN(C(=O)Nc1cccc3ccccc13)CC2 | > 25 µM (inactive)
CSc1ncccc1C(=O)NC1(O)C(=O)c2ccccc2C1=O | 18.3 µM
Cc1ccc(NC(=O)Nc2ccc(C)n(CC(=O)Nc3cccc(C)c3)c2=O)cc1 | > 25 µM (inactive)
Cc1ccc(N(CC(=O)N2CCCc3ccccc32)S(=O)(=O)c2ccc3c(c2)OCCO3)cc1 | > 25 µM (inactive)
Cc1nc(C2(NC(=O)Nc3ccc(F)cc3F)CCCC2)no1 | > 25 µM (inactive)

Structure (SMILES) | IC50
CC[C@@H](C(=O)[C@@H](C)[C@@H](O)[C@H](C)CCc1ccc(C)c(O)c1C(=O)O)[C@@H]1O[C@](CC)([C@H]2CC[C@](O)(CC)[C@H](C)O2)C[C@@H]1C | > 25 µM (inactive)
Cc1cccc(NC(=O)Cn2cnc(-c3noc(-c4ccccc4)n3)c2)c1C | > 25 µM (inactive)
Cc1ccc(NC(=O)Nc2ccc(C)n(CC(=O)Nc3ccc(C)c(C)c3)c2=O)cc1 | > 25 µM (inactive)
Cc1nc(C2COCCN2C(=O)c2cc(C(C)(C)C)[nH]n2)cc(=O)[nH]1 (stereo not drawn) | > 25 µM (inactive)
O=c1c(S(=O)(=O)c2cc(F)cc(F)c2)c[nH]c2cc(Cl)ccc12 | > 25 µM (inactive)
CC(C)c1ccc(C2CC(=O)c3cn[nH]c3C2)cc1 (stereo not drawn) | > 25 µM (inactive)
CS(=O)(=O)n1nc(NCc2ccc(F)cc2)nc1NCc1ccc(F)cc1 | > 25 µM (inactive)
C=C1CCC2[C@](C)(CCC[C@]2(C)C(=O)OC)[C@H]1CCc1ccoc1/C=C/C(=O)O (stereo partly drawn) | > 25 µM (inactive)
O=C(CSc1nnc(-c2cccnc2)n1-c1ccccc1)c1cccc([N+](=O)[O-])c1 | > 25 µM (inactive)
Cc1ccc2[nH]c(=O)c(-c3nc4ccc(C)cn4c3NCc3ccc(F)cc3)cc2c1 | > 25 µM (inactive)
Cn1c(=O)c2c3c(cnc2n(C)c1=O)C(=O)CC(c1ccccc1)C3 (stereo not drawn) | > 25 µM (inactive)
Cc1nc(-c2ccc(C(=O)Nc3ccc(F)cc3)cc2)cs1 | > 25 µM (inactive)
O=c1c2cnc(N3CCCCC3)nc2ccn1CCc1ccccc1 | > 25 µM (inactive)
COc1cccc(C(=O)N2CCc3nc(-c4ccc(F)cc4)ncc3C2)c1 | > 25 µM (inactive)
COc1ccc(-c2cc3nc([C@H](C)NC(=O)Cc4cc(F)ccc4F)nn3cn2)cc1 | > 25 µM (inactive)
COc1c(O)cc(CC(=O)O)c(C(C)=O)c1O | 9.26 µM
Cc1ccc(NC(=O)Cn2cc(C(=O)c3ccccc3)c(=O)c3cc(C)ccc32)cc1 | > 25 µM (inactive)
COc1ccc(-c2nc(CNC(=O)c3ccccc3C)cs2)cc1 | > 25 µM (inactive)
Cc1ccc(-n2nc3c(c2NC(=O)c2ccc(F)c(F)c2)CS(=O)(=O)C3)cc1 | > 25 µM (inactive)
Cc1c(Cl)ccc2sc(N3CCN(C(=O)c4ccn(C)n4)CC3)nc12 | > 25 µM (inactive)
O=c1oc2ccccc2cc1-c1nc(-c2ccc(Oc3ccccc3)cc2)cs1 | > 25 µM (inactive)
CN(C)CCN1C(=O)c2cc3occc3n2CC1(C)C(=O)NC1CCCCCC1 (stereo not drawn) | > 25 µM (inactive)

Structure (SMILES) | IC50
CSc1ncccc1C(=O)OCc1ccccc1 | > 25 µM (inactive)
Cc1ccc(S(=O)(=O)N2CCCCC2)cc1NC(=O)c1ccc(C#N)cc1 | > 25 µM (inactive)
O=C(Cn1c(=O)c2ccccc2c2ccccc21)Nc1ccc2c(c1)OCO2 | > 25 µM (inactive)
CC(C)(C)n1nc2c(c1NC(=O)Cc1ccccc1)CSC2 | > 25 µM (inactive)
COc1ccccc1Nc1ncc(C(=O)NCCc2ccc(Cl)cc2)c2ccccc12 | > 25 µM (inactive)
CCC(C(=O)Nc1ncc2c(n1)CC(c1ccccc1)CC2=O)c1ccccc1 (stereo not drawn) | > 25 µM (inactive)
N#Cc1cccc(NC(=O)Nc2cccn(Cc3ccccc3F)c2=O)c1 | 17.1 µM
O=C(Nc1ccccc1-c1nc2ccccc2[nH]1)c1sc2ccccc2c1Cl | > 25 µM (inactive)
Cc1cc(NC(=O)c2cc(-c3cccnc3)n[nH]2)ccc1Br | > 25 µM (inactive)
COc1ccc(-c2cc3nc([C@H](C)NC(=O)COc4ccccc4F)nn3cn2)cc1 | > 25 µM (inactive)
CCc1ccc(NC(=O)Cn2c(=O)n(Cc3ccccc3)c(=O)c3nn(CC)cc32)cc1 | > 25 µM (inactive)
O=C(C1CCCCC1)N1CCC(c2nc3c(nnn3Cc3cccc(F)c3)c(=O)[nH]2)CC1 | > 25 µM (inactive)
Cc1ccc2c(c1)N(C)C(=O)c1cc(NC(=O)c3ccc(F)cc3)ccc1O2 | > 25 µM (inactive)
COc1ccc(-c2cc3nc([C@H](C)NC(=O)Cc4ccccc4C)nn3cn2)cc1 | > 25 µM (inactive)
Cc1nc(-c2ccccc2)n(Cc2ccc(F)cc2)c(=O)c1CCO | > 25 µM (inactive)
Cc1nn(-c2ccc(F)cc2)c(C)c1S(=O)(=O)N1CCN(c2ncccn2)CC1 | > 25 µM (inactive)
O=C(Nc1ccc(C(F)(F)F)cc1)C1CC(=O)N(c2ccc3c(c2)OCCO3)C1 (stereo not drawn) | > 25 µM (inactive)
Cn1nc(Cl)c(Cl)c1Oc1ccc(S(=O)(=O)Nc2ccc(Oc3ccc(C(F)(F)F)cn3)c(Cl)c2)cc1 | > 25 µM (inactive)
COc1cc(NC(=O)Cn2cc(C(=O)c3ccccc3)c(=O)c3cc(Cl)ccc32)cc(OC)c1 | > 25 µM (inactive)
C=Cc1cc(OC)c2c(c1)c(=O)oc1c2cc(OC)c2c(O)ccc([C@H]3OC(C)[C@@H](OC(C)=O)C(N(C)C)C3O)c21 (stereo partly drawn) | > 25 µM (inactive)
O=C(CSc1ccc2nnc(-c3cccc(F)c3)n2n1)N1CCCc2ccccc21 | > 25 µM (inactive)
N#Cc1ccc(NC(=O)Nc2cccn(Cc3ccccc3Br)c2=O)cc1 | > 25 µM (inactive)
